Biological target: SYK kinase (Homo sapiens, UniProt P43405)
Test: SYK kinase assay (HTRF KinEASE-TK)
Format: biochemical
Conditions: class symbols, read-out: Syk inhibition IC50
Procedure: A homogeneous time-resolved fluorescence (HTRF) assay was performed to assess the potential inhibitory effect of compounds on SYK kinase. The HTRF KinEASE-TK kit (Cisbio) was used. During the step, kinase will phosphorylate the substrate, and the resulting fluorescence signal is proportional to the phosphorylation level. The assay was performed in the following steps: First, the testing compounds were diluted 1:3 in succession in DMSO. The 1× kinase buffer contained 1 volume of 5× enzymatic buffer with 4 volumes of distilled water, 5 mM MgCl2, 1 mM MnCl2, and 1 mM DTT. The assays were assembled in 384 well plates (784075, Greiner) where 10 nl of compound solutions were added into each well, and the plates were centrifuged at 1000 g for 1 min. Then, 5 μl of 2×SYK in 1× kinase buffer were added to each well. The plates were centrifuged at 1000 g for 30 s and then incubated at room temperature for 10 min. The reaction was initiated by adding […] of premixed 2×TK-substrate-biotin and ATP mixture in 1× kinase buffer to the assay plates. The plates were centrifuged at 1000 g for 30 s and incubated at room temperature for 30 min. Phosphorylation was detected by adding 5 μl of 4×Sa-XL 665 in HTRF detection buffer into each well of the assay plates. The plates were centrifuged plates at 1000 g for 30 sec, and then incubated at room temperature for 1 h. Finally, the plates were read on an Envision 2104 plate reader (PerkinElmer) and the fluorescence signal was measured at 615 nm (Cryptate) and 665 nm (XL665).
A ratio (665/615 nm) was calculated for each well. The inhibition ratio was calculated as follow: […]
IC50 was calculated by fitting % Inhibition values and log of compound concentrations to nonlinear regression (dose response−variable slope) with GraphPad 6.0.

`COc1ccc(Nc2nc(-c3ccc4cn[nH]c4c3)cn3ncnc23)cc1OC` [I3, N-(3,4-dimethoxyphenyl)-6-(1H-indazol-6-yl)-[1,2,4]triazolo[1,5-a]pyrazin-8-amine] and `COc1cc(Nc2nc(-c3ccc4cn[nH]c4c3)cn3ncnc23)ccc1N1CCN(C)CC1` [I12, 6-(1H-indazol-6-yl)-N-(3-methoxy-4-(4-methylpiperazin-1-yl)phenyl)-[1,2,4]triazolo[1,5-a]pyrazin-8-amine] cannot be ordered by IC50: at most 0.05 µM for the first, at most 0.05 µM for the second.

`O=C(O)c1ccc(NC(=O)c2cccc(-c3cn4ncnc4c(Nc4ccc(N5CCOCC5)cc4)n3)c2)cc1` [I7, 4-(3-(8-((4-morpholinophenyl)amino)-[1,2,4]triazolo[1,5-a]pyrazin-6-yl)benzamido)benzoic acid] and `CC1(C)Oc2cc(-c3cn4ncnc4c(Nc4ccc(N5CCOCC5)cc4)n3)cnc2NC1=O` [I33, 2,2-dimethyl-7-(8-((4-morpholinophenyl)amino)-[1,2,4]triazolo[1,5-a]pyrazin-6-yl)-2H-pyrido[3,2-b][1,4]oxazin-3(4H)-one] cannot be ordered by IC50: at most 0.05 µM for the first, 0.05 to 0.5 µM for the second.

`COc1cc(Nc2nc(-c3cnc4c(c3)OCC(=O)N4)cn3ncnc23)cc(OC)c1OC` [I34, 7-(8-((3,4,5-trimethoxyphenyl)amino)-[1,2,4]triazolo[1,5-a]pyrazin-6-yl)-2H-pyrido[3,2-b][1,4]oxazin-3(4H)-one] and `COc1cc(Nc2nc(-c3cnc4c(c3)OC(C)(C)C(=O)N4)cn3ncnc23)cc(OC)c1OC` [I35, 2,2-dimethyl-7-(8-((3,4,5-trimethoxyphenyl)amino)-[1,2,4]triazolo[1,5-a]pyrazin-6-yl)-2H-pyrido[3,2-b][1,4]oxazin-3(4H)-one] cannot be ordered by IC50: over 5 µM for the first, over 5 µM for the second.

`COc1ccc(Nc2nc(-c3cnc4c(c3)OCC(=O)N4)cn3ncnc23)cc1OC` [I36, 7-(8-((3,4-dimethoxyphenyl)amino)-[1,2,4]triazolo[1,5-a]pyrazin-6-yl)-2H-pyrido[3,2-b][1,4]oxazin-3(4H)-one] and `COc1ccc(Nc2nc(-c3cnc4c(c3)OC(C)(C)C(=O)N4)cn3ncnc23)cc1OC` [I37, 7-(8-((3,4-dimethoxyphenyl)amino)-[1,2,4]triazolo[1,5-a]pyrazin-6-yl)-2,2-dimethyl-2H-pyrido[3,2-b][1,4]oxazin-3(4H)-one] fall in the same range of IC50: 0.05 to 0.5 µM for the first, 0.05 to 0.5 µM for the second.

`O=C1COc2cc(-c3cn4ncnc4c(Nc4ccc5c(c4)OC(F)(F)O5)n3)cnc2N1` [I38, 7-(8-((2,2-difluorobenzo[d][1,3]dioxol-5-yl)amino)-[1,2,4]triazolo[1,5-a]pyrazin-6-yl)-2H-pyrido[3,2-b][1,4]oxazin-3(4H)-one] and `CC1(C)Oc2cc(-c3cn4ncnc4c(Nc4ccc5c(c4)OC(F)(F)O5)n3)cnc2NC1=O` [I39, 7-(8-((2,2-difluorobenzo[d][1,3]dioxol-5-yl)amino)-[1,2,4]triazolo[1,5-a]pyrazin-6-yl)-2,2-dimethyl-2H-pyrido[3,2-b][1,4]oxazin-3(4H)-one] cannot be ordered by IC50: over 5 µM for the first, over 5 µM for the second.

`Fc1cc(Nc2nc(-c3ccc4cn[nH]c4c3)cn3cnnc23)ccc1N1CCOCC1` [I40, N-(3-fluoro-4-morpholinophenyl)-6-(1H-indazol-6-yl)-[1,2,4]triazolo[4,3-a]pyrazin-8-amine] and `Clc1cc(Nc2nc(-c3ccc4cn[nH]c4c3)cn3cnnc23)ccc1N1CCOCC1` [I41, N-(3-chloro-4-morpholinophenyl)-6-(1H-indazol-6-yl)-[1,2,4]triazolo[4,3-a]pyrazin-8-amine] cannot be ordered by IC50: over 5 µM for the first, over 5 µM for the second.

First: Cc1cc(Nc2nc(-c3ccc4cn[nH]c4c3)cn3cnnc23)ccc1N1CCOCC1 [I42, 6-(1H-indazol-6-yl)-N-(3-methyl-4-morpholinophenyl)-[1,2,4]triazolo[4,3-a]pyrazin-8-amine]
Second: COc1cc(Nc2nc(-c3ccc4[nH]ncc4c3)cn3cnnc23)ccc1N1CCOCC1 [I67, 6-(1H-indazol-5-yl)-N-(3-methoxy-4-morpholinophenyl)-[1,2,4]triazolo[4,3-a]pyrazin-8-amine]
The IC50 of the first is higher: over 5 µM for the first, 0.5 to 5 µM for the second.

`c1cc(N2CCOCC2)ncc1Nc1nc(-c2ccc3cn[nH]c3c2)cn2cnnc12` [I43, 6-(1H-indazol-6-yl)-N-(6-morpholinopyridin-3-yl)-[1,2,4]triazolo[4,3-a]pyrazin-8-amine] and `c1cc(N2CCOCC2)ccc1Nc1nc(-c2ccc3[nH]ncc3c2)cn2cnnc12` [I65, 6-(1H-indazol-5-yl)-N-(4-morpholinophenyl)-[1,2,4]triazolo[4,3-a]pyrazin-8-amine] cannot be ordered by IC50: over 5 µM for the first, over 5 µM for the second.

First: COc1cc(Nc2nc(-c3ccc4c(F)n[nH]c4c3)cn3cnnc23)ccc1N1CCOCC1 [I44, 6-(3-fluoro-1H-indazol-6-yl)-N-(3-methoxy-4-morpholinophenyl)-[1,2,4]triazolo[4,3-a]pyrazin-8-amine]
Second: COc1cc(Nc2nc(-c3ccc4c(C)n[nH]c4c3)cn3cnnc23)ccc1N1CCOCC1 [I46, N-(3-methoxy-4-morpholinophenyl)-6-(3-methyl-1H-indazol-6-yl)-[1,2,4]triazolo[4,3-a]pyrazin-8-amine]
The IC50 of the first is higher: over 5 µM for the first, 0.5 to 5 µM for the second. The second is the more potent here.

`Fc1n[nH]c2cc(-c3cn4cnnc4c(Nc4ccc(N5CCOCC5)cc4)n3)ccc12` [I45, 6-(3-fluoro-1H-indazol-6-yl)-N-(4-morpholinophenyl)-[1,2,4]triazolo[4,3-a]pyrazin-8-amine] and `c1cc2cc(-c3cn4cnnc4c(Nc4ccc(N5CCOCC5)cc4)n3)ccc2[nH]1` [I66, 6-(1H-indol-5-yl)-N-(4-morpholinophenyl)-[1,2,4]triazolo[4,3-a]pyrazin-8-amine] cannot be ordered by IC50: over 5 µM for the first, over 5 µM for the second.

First: COc1cc(Nc2nc(-c3ccc4c(C)c[nH]c4c3)cn3cnnc23)ccc1N1CCOCC1 [I47, N-(3-methoxy-4-morpholinophenyl)-6-(3-methyl-1H-indol-6-yl)-[1,2,4]triazolo[4,3-a]pyrazin-8-amine]
Second: COc1cc(Nc2nc(-c3ccc4[nH]ccc4c3)cn3cnnc23)ccc1N1CCOCC1 [I68, 6-(1H-indol-5-yl)-N-(3-methoxy-4-morpholinophenyl)-[1,2,4]triazolo[4,3-a]pyrazin-8-amine]
The IC50 of the first is lower: 0.5 to 5 µM for the first, over 5 µM for the second. The first is the more potent here.

`c1nc2c(Nc3ccc(N4CCC5(COC5)C4)cc3)nc(-c3ccc4cn[nH]c4c3)cn2n1` [I63, N-(4-(2-oxa-6-azaspiro[3.4]octan-6-yl)phenyl)-6-(1H-indazol-6-yl)-[1,2,4]triazolo[1,5-a]pyrazin-8-amine] and `c1nc2c(Nc3ccc(N4CCC5(COC5)C4)cc3)nc(-c3ccc4cc[nH]c4c3)cn2n1` [I64, N-(4-(2-oxa-6-azaspiro[3.4]octan-6-yl)phenyl)-6-(1H-indol-6-yl)-[1,2,4]triazolo[1,5-a]pyrazin-8-amine] cannot be ordered by IC50: over 5 µM for the first, over 5 µM for the second.

`CC(C)N1C[C@@H]2C[C@@H]1CN2c1ccc(Nc2nc(-c3ccc4cn[nH]c4c3)cn3ncnc23)cc1` [I71, 6-(1H-indazol-6-yl)-N-(4-((1S,4R)-5-isopropyl-2,5-diazabicyclo[2.2.1]heptan-2-yl)phenyl)-[1,2,4]triazolo[1,5-a]pyrazin-8-amine] and `c1nc2c(Nc3ccc(N4CCOCC4)c(OC4CC4)c3)nc(-c3ccc4cn[nH]c4c3)cn2n1` [I74, N-(3-cyclopropoxy-4-morpholinophenyl)-6-(1H-indazol-6-yl)-[1,2,4]triazolo[1,5-a]pyrazin-8-amine] fall in the same range of IC50: 0.05 to 0.5 µM for the first, 0.05 to 0.5 µM for the second.

Work on `c1nc2c(Nc3ccc(N4CC5CC4CN5C4COC4)c(OC4CC4)c3)nc(-c3ccc4cc[nH]c4c3)cn2n1` (stereo not shown) [I80, N-(3-cyclopropoxy-4-(5-(oxetan-3-yl)-2,5-diazabicyclo[2.2.1]heptan-2-yl)phenyl)-6-(1H-indol-6-yl)-[1,2,4]triazolo[1,5-a]pyrazin-8-amine] yielded an IC50 of 0.5 to 5 µM.

Same assay, conditions: given as number, read-out: Syk inhibition IC50

Work on `c1cc(N2CCOCC2)ccc1Nc1nc(-c2ccc3cn[nH]c3c2)cn2cnnc12` [I48, 6-(1H-indazol-6-yl)-N-(4-morpholinophenyl)-[1,2,4]triazolo[4,3-a]pyrazin-8-amine] yielded an IC50 of over 10 µM.

Biological target: T1, Ba/F3-TEL-SYK cells (Homo sapiens, UniProt P43405)
T1 construct: fused on or other part: N-terminal part of TEL (ETV6) with its oligomerising PNT/SAM domain, fused before the SYK part that carries the kinase domain; P41212 (Transcription factor ETV6)
Test: Ba/F3-TEL-SYK cell-based assay (CellTiter-Glo proliferation)
Conditions: 72 hr, read-out: BaF3 Cell assay IC50
Procedure: CellTiter-Glo® Luminescent Cell Viability Assay was used to determine the number of viable cells in culture based on quantitation of the ATP present, as an indicator of metabolically active cells. The assay was performed in the following steps: First, the testing compounds were dissolved in DMSO to make a stock solution. The stocks (10 mM) were then diluted to varying concentrations: […], 0.305 and 0.102 μM. An aliquot of 0.2 μl of diluted compounds were added to the 384 well assay plate. Second, added 40 μl of cell suspension with 800 Ba/F3-TEL-SYK cells into each well and incubated the plate at 37° C., 5% CO2 for 72 hr. Then, added 20 μl Cell Titer-Glo Reagent into each well of the cell culture plate. Mixed the contents for 2 min on an orbital shaker to lyse cells, and rest the plate at room temperature for 30 min. Finally, luminescence values were obtained using an Envision 2104 plate reader (PerkinElmer) and calculated the average data and Standard Deviation (SD) of DMSO and Reference (GS-9973, 1 μM) as high control and low control. To determine the IC50 value, fit the data using non-linear regression equation.

`COc1ccc(Nc2nc(-c3ccc4cn[nH]c4c3)cn3ncnc23)cc1OC` [I3, N-(3,4-dimethoxyphenyl)-6-(1H-indazol-6-yl)-[1,2,4]triazolo[1,5-a]pyrazin-8-amine] and `COc1cc(Nc2nc(-c3ccc4cn[nH]c4c3)cn3ncnc23)ccc1N1CCN(C)CC1` [I12, 6-(1H-indazol-6-yl)-N-(3-methoxy-4-(4-methylpiperazin-1-yl)phenyl)-[1,2,4]triazolo[1,5-a]pyrazin-8-amine] cannot be ordered by GI50: at most 0.05 µM for the first, at most 0.05 µM for the second.

`O=C(O)c1ccc(NC(=O)c2cccc(-c3cn4ncnc4c(Nc4ccc(N5CCOCC5)cc4)n3)c2)cc1` [I7, 4-(3-(8-((4-morpholinophenyl)amino)-[1,2,4]triazolo[1,5-a]pyrazin-6-yl)benzamido)benzoic acid] was tested, and the GI50 was over 5 µM.

Source: US12577248B2, “Substituted [1,2,4]triazolo[1,5-a]pyrazines as spleen tyrosine kinase inhibitors” (NANJING RUIJIE PHARMA CO., LTD., priority 2020, dated 2026)
